Patent publication US20060079453A1, “Hla binding peptides and their uses” (priority 2002, published 2006)
Read-outs that look alike come from different tables or passages of the source. No end group written: not given here.

Legend:
Test in all cases: biochemical
Format in all cases: binding
HLA-DR DRB1*0101 (DR1) = HLA-DR DRB1*0101 (DR1) (Homo sapiens, UniProt P01903+P01911, A100R/D57E/F55L/F60I/F76Y/I96L/L162R/M171V/P40L/Q125E/R42F/V115G/Y59C)
HLA-DR DRB1*0301 (DR3) = HLA-DR DRB1*0301 (DR3) (Homo sapiens, UniProt P01903+P01911, A100K/A102G/A103R/A169T/F55Y/I96L/K41T/L162R/M171V/P40S/Q125H/Q178H/Q39Y/R42S/S66N/T106N/T262R/W38E/Y61H)
Sequence of HLA-DR DRB1*0301 (DR3) (P01903 26-254 limits assumed, other chains not shown): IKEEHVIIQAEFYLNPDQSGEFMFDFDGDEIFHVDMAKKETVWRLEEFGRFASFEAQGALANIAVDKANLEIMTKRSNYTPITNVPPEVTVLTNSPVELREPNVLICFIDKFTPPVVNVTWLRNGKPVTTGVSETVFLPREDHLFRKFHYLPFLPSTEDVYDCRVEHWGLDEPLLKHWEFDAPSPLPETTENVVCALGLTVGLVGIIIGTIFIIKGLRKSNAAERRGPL

HLA-DR DRB1*0401 (DR4) = HLA-DR DRB1*0401 (DR4) (Homo sapiens, UniProt P01903+P01911, A100K/A169T/F76Y/I96L/K127E/L162R/M171V/N62H/P40V/Q125Y/R42H/S133A/S149N/S66Y/V115G/V209L/W38E)
HLA-DR DRB1*0405 (DR4) = HLA-DR DRB1*0405 (DR4) (Homo sapiens, UniProt P01903+P01911, A100R/A169T/D86S/F76Y/I96L/K127E/L162R/M171V/N62H/P40V/Q125Y/R42H/S133A/S149N/S66Y/V115G/V209L/W38E)
HLA-DR DRB1*0701 (DR7) = HLA-DR DRB1*0701 (DR7) (Homo sapiens, UniProt P01903+P01911, A100R/A102G/A103Q/D57E/D86V/E43K/F76Y/K127E/L162R/M171V/P40G/Q125H/Q99D/R33Q/R42Y/R54Q/S133A/S66F/T210M/V115G/Y107V/Y59L/Y89S)
HLA-DR DRB1*1302 (DR13) = HLA-DR DRB1*1302 (DR13) (Homo sapiens, UniProt P01903+P01911, A100E/A169T/K41T/L162R/M171V/P40S/Q125H/Q178H/Q39Y/Q99D/R42S/S66N/T262R/V115G/W38E/Y61H)
Sequence of HLA-DR DRB1*1302 (DR13) (P01903 26-254 limits assumed, other chains not shown): as above

HLA-DR DRB1*1501 (DR15) = HLA-DR DRB1*1501 (DR15) (Homo sapiens, UniProt P01903+P01911)
HLA-DR DRB3*0101 (DR52) = HLA-DR DRB3*0101 (DR52) (Homo sapiens, UniProt P01903+P79483)
HLA-DR DRB4*0101 (DR53) = HLA-DR DRB4*0101 (DR53) (Homo sapiens, UniProt P01903+P13762, G164S)
HLA-DR DRB5*0101 (DR51) = HLA-DR DRB5*0101 (DR51) (Homo sapiens, UniProt P01903+Q30154)
HLA-DR DRB1*0802 (DR8) = HLA-DR DRB1*0802 (DR8) (Homo sapiens, UniProt P01903+P01911, A100R/A103L/A169T/F76Y/H45Y/I96F/K41T/L162R/M171V/P40S/Q125H/Q178H/Q39Y/Q99D/R218S/R42G/S66Y/V115G/W38E)
HLA-DR DRB1*0901 (DR9) = HLA-DR DRB1*0901 (DR9) (Homo sapiens, UniProt P01903+P01911, A100R/A103E/D57H/D86V/F55Y/F60I/F76Y/I96F/K127E/L162R/M171V/P40D/Q125H/Q99R/R33Q/R42F/S133A/S66N/T210M/V115G/W38K/Y107V/Y59G/Y89S)
HLA-DR DRB1*1101 (DR11) = HLA-DR DRB1*1101 (DR11) (Homo sapiens, UniProt P01903+P01911, A100R/A169T/A87E/I96F/K41T/L162R/M171V/P40S/Q125H/Q178H/Q39Y/Q99D/R42S/S66Y/T262R/V115G/W38E)
Sequence of HLA-DR DRB1*1101 (DR11) (P01903 26-254 limits assumed, other chains not shown): as above

Compound | IC50 (HLA-DR DRB1*0101 (DR1)) | IC50 (HLA-DR DRB1*0301 (DR3)) | IC50 (HLA-DR DRB1*0401 (DR4)) | IC50 (HLA-DR DRB1*0405 (DR4)) | IC50 (HLA-DR DRB1*0701 (DR7)) | IC50 (HLA-DR DRB1*1302 (DR13)) | IC50 (HLA-DR DRB1*1501 (DR15)) | IC50 (HLA-DR DRB3*0101 (DR52)) | IC50 (HLA-DR DRB4*0101 (DR53)) | IC50 (HLA-DR DRB5*0101 (DR51)) | IC50 (HLA-DR DRB1*1101 (DR11)) | further results
VGGAYLLPRRGPRLGV | 131 nM | 309 µM | 26.2 µM | > 12.2 µM | 0.703 µM | 24.7 µM | 4.1 nM | > 66.5 µM | 37.6 µM | 0.05 µM | – | –
VNFYAWKRMEVGQQA | – | 2.87 µM | – | – | – | – | – | – | – | – | – | IC50 (HLA-DR DRB1*0101 (DR1); DRB1 *0101): 193 nM; IC50 (HLA-DR DRB1*0401 (DR4); DRB1 *0401): 0.01 µM; IC50 (HLA-DR DRB1*0405 (DR4); DRB1 *0405): 0.015 µM; IC50 (HLA-DR DRB1*0701 (DR7); DRB1 *0701): 40.2 µM; IC50 (HLA-DR DRB1*0802 (DR8)): 35 nM; IC50 (HLA-DR DRB1*0901 (DR9); DRB1 *0901): 1.24 µM; IC50 (HLA-DR DRB1*1101 (DR11); DRB1 *1101): 50 nM; IC50 (HLA-DR DRB1*1302 (DR13); DRBI *1302): 14.8 µM; IC50 (HLA-DR DRB4*0101 (DR53); DRB4 *0101): 1.49 µM
VGGVALLPRRGPRLGV | 849 nM | 326 µM | 48.2 µM | > 12.2 µM | 61.6 µM | > 15.4 µM | 8.5 nM | > 66.5 µM | 25.7 µM | 20.5 µM | – | –
HLDMLRHLYQGCQVV | – | 37.6 µM | – | – | – | – | – | 107 µM | – | – | – | IC50 (HLA-DR DRB1*0101 (DR1); DRB1 *0101): 304 nM; IC50 (HLA-DR DRB1*0401 (DR4); DRB1 *0401): 9.42 µM; IC50 (HLA-DR DRB1*0405 (DR4); DRB1 *0405): 3.59 µM; IC50 (HLA-DR DRB1*0701 (DR7); DRB1 *0701): 27 µM; IC50 (HLA-DR DRB1*1302 (DR13); DRBI *1302): 2.88 µM; IC50 (HLA-DR DRB1*1501 (DR15); DRBI *1501): 359 nM; IC50 (HLA-DR DRB4*0101 (DR53); DRB4 *0101): 0.163 µM; IC50 (HLA-DR DRB5*0101 (DR51); DRB5 *0101): 7.09 µM
VGGVYLLRRAGPRLGV | – | 39.8 µM | – | 6.43 µM | 0.433 µM | > 15.4 µM | 6.2 nM | 91.9 µM | 30.7 µM | 0.0079 µM | 67 nM | –
GAPLGGLARALAHGV | 537 nM | 352 µM | 13.9 µM | > 13 µM | 0.066 µM | 0.076 µM | – | 124 µM | 3.95 µM | 4.26 µM | 12 nM | –
CC(C)C[C@H](N)C(=O)N[C@@H](CCC(=O)O)C(=O)N1CCC[C@H]1C(=O)N[C@@H](Cc1c[nH]c2ccccc12)C(=O)N[C@@H](CC(N)=O)C(=O)N[C@@H](Cc1c[nH]cn1)C(=O)N1CCC[C@H]1C(=O)NCC(=O)N[C@@H](CO)C(=O)N[C@@H](CCC(N)=O)C(=O)N1CCC[C@H]1C(=O)N[C@@H](CCCCN)C(=O)N[C@H](C(=O)N[C@@H](C)C(=O)N[C@@H](CS)C(=O)N[C@H](C(=O)O)[C@@H](C)O)[C@@H](C)O | > 33600 nM | > 328 µM | > 33.3 µM | > 8.23 µM | > 72.3 µM | > 11 µM | – | – | 0.092 µM | 2.94 µM | > 15300 nM | IC50 (HLA-DR DRB1*0802 (DR8)): 69200 nM; IC50 (HLA-DR DRB1*0901 (DR9)): 34.5 µM
GAPLGGAARLLAHGV | 398 nM | 23 µM | 15 µM | > 3.37 µM | 57.5 µM | 29.4 µM | 631 nM | > 51.1 µM | 2.55 µM | – | 80 nM | –
GAPLGGAARALAAGV | – | 23.3 µM | 11.3 µM | > 3.37 µM | 7.42 µM | 23.2 µM | 5710 nM | > 51.1 µM | 3.87 µM | 8.35 µM | 45 nM | –
CC[C@H](C)[C@H](NC(=O)[C@H](CCCCN)NC(=O)[C@H](CC(N)=O)NC(=O)[C@@H](NC(=O)[C@@H](NC(=O)[C@H](CC(C)C)NC(=O)[C@@H](NC(=O)[C@H](CO)NC(=O)[C@H](CC(C)C)NC(=O)[C@H](C)NC(=O)[C@H](CCC(=O)O)NC(=O)CN)[C@@H](C)O)C(C)C)C(C)C)C(=O)N[C@@H](CCCNC(=N)N)C(=O)NCC(=O)N[C@H](C(=O)O)[C@@H](C)O | – | 29.7 µM | – | 30.1 µM | – | 0.055 µM | – | – | 1.51 µM | – | 977 nM | IC50 (HLA-DR DRB1*0802 (DR8)): 383 nM; IC50 (HLA-DR DRB1*0901 (DR9)): 40.8 µM; IC50 (HLA-DR DRB5*0101 (DR51); DRB5 *0101): 0.108 µM
GAPLGGAARAAAHGV | – | 378 µM | 25.3 µM | > 3.37 µM | 31.3 µM | > 23.5 µM | > 8670 nM | > 51.1 µM | 41.4 µM | 42.5 µM | 3630 nM | –
